Experimental data published in patent publication US11661431B2, “Thienopyrrole compounds” (Gilead Sciences, Inc., priority 2021, dated 2023).
Converted amounts (≈) assume the structure as drawn. Like-named read-outs stand apart in the source and are kept apart here.

How the values were obtained:
[1] = target: MATE2-K (multidrug and toxin extrusion protein 2) (Homo sapiens (Human), UniProt Q86VL8); experiment: MATE2-K IC50 assay (14C-metformin uptake in transfected MDCK-II cells); type: in vitro ADME
Chain of MATE2-K (multidrug and toxin extrusion protein 2) (Q86VL8 other isoform, or with tags, fused parts or gaps, species assumed): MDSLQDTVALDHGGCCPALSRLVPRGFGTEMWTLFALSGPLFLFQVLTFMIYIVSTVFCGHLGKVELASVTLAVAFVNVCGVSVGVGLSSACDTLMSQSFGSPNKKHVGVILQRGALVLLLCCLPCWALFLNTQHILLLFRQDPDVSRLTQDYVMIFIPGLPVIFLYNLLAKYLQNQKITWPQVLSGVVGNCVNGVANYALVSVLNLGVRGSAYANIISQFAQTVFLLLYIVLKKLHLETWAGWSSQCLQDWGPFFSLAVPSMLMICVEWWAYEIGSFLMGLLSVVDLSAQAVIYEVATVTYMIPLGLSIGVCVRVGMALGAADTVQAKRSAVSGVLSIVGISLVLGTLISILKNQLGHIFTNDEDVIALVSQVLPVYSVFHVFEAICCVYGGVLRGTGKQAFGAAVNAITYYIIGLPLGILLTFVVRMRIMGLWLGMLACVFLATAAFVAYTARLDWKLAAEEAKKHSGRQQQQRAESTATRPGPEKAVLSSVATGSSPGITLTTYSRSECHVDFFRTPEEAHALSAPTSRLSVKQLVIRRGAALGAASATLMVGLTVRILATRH
Method: MATE2-K (multidrug and toxin extrusion protein 2) is expressed in the apical membrane in the kidney and mediates the elimination of compounds to urine. MDCK-II cells were maintained in DMEM with low glucose and 10% FBS. Cells passages up to 40 were seeded at 60K±10K cells/well on 96-well, transwell membrane plates approximately 24 hours before transfection. Transport assays were carried out approximately 48 hours after transfection. […]. The assay plate was then placed in a 37° C. incubator with orbital shaking at approximately 60 RPM for the pre-incubation time of 15 minutes. […]. The assay plate was incubated at 37° C. with orbital shaking at approximately 60 RPM for the incubation time of 5 minutes. At end of the 5-minute incubation, 15 μL of dosing solution was removed from each well containing the compound being tested and measured using LC/MS/MS for dose recovery assessment. The assay wells were then washed four times with ice cold PBS. 60 μL cell extraction solution was added to each well and the plate was incubated at 37° C. with orbital shaking at approximately 60 RPM for the 15 minutes. After this incubation, 30 μL was removed from each well, added to 200 μL scintillation fluid, and counted on a 1450 Microbeta (Perkin-Elmer) to measure the probe substrate uptake. Inhibition potential of the compound being tested was calculated by dividing the transporter-mediated uptake rate in presence of the compound being tested or the reference inhibitor by the transporter-mediated uptake rate in presence of vehicle control and fitted to a sigmoidal function to determine the IC50 values.

TLR7 = TLR7 (Homo sapiens (Human), UniProt Q9NYK1); experiment: TLR7 human peripheral blood mononuclear cell (PBMC) cell-based assay (GS-986 as agonist; IL-6 and IFNα readout); conditions: human PBMCs, TLR7 agonist GS-986 at 400 nM, 6 hours, antagonist potency; read-out: TLR-7 EC50
Chain of TLR7 (Q9NYK1 27-1049): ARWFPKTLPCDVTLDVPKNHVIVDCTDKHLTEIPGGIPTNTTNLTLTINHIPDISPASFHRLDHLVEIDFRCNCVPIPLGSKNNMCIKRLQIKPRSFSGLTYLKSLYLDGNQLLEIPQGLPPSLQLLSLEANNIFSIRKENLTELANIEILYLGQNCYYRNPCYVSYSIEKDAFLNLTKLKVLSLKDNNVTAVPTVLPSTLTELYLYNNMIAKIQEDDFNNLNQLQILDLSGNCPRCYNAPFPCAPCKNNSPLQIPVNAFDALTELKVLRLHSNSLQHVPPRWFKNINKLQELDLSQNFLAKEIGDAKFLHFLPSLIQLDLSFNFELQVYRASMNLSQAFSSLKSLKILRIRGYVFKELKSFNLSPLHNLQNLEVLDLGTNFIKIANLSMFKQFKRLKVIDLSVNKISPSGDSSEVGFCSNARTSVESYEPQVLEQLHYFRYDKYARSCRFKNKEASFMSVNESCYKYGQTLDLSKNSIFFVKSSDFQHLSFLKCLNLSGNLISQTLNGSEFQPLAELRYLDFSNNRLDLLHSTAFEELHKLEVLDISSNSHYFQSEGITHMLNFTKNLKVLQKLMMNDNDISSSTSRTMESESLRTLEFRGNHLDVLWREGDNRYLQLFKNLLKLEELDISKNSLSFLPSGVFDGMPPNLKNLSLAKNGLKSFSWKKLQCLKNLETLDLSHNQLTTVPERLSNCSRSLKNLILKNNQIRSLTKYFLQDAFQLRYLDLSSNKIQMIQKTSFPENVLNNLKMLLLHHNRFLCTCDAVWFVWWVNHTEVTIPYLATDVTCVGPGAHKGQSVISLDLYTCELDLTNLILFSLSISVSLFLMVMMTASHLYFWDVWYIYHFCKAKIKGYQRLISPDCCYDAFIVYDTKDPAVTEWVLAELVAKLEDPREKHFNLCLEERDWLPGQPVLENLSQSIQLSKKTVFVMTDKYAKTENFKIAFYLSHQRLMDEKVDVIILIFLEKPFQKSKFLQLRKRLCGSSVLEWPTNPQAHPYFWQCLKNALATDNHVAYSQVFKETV
Procedure, shortened: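 Human PBMCs (100,000 cells/well) preincubated 1 h at 37 °C with antagonist in 10-point dose response, then stimulated with TLR7 agonist for a further 6 h at 37 °C, 5% CO2. Supernatant IL-6 and IFNα measured by electrochemiluminescence immunoassay.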

[2] = system: cryopreserved hepatocytes; experiment: Human hepatic stability in cryopreserved hepatocytes; conditions: 1×10^6 cells/mL, aliquots at 0, 1, 3 and 6 hours, LC-MS/MS
Method: Each tested compound was incubated in suspensions of cryopreserved hepatocytes at a final concentration of 1 μM. Vials containing cryopreserved hepatocytes were removed from liquid nitrogen and immediately immersed in a 37° C. water bath. The vials were swirled gently until the contents had thawed. They were then immediately emptied into 48 mL of pre-warmed HT medium in a 50 mL conical tube. Cells remaining in the vial were resuspended with 1.0 mL of pre-warmed HT medium and added to the conical tube. The tube was capped and then gently inverted several times to re-suspend the hepatocytes. The cell suspension was centrifuged at 500×g for 10 minutes at room temperature and the supernatant discarded. The cell pellet was loosened by gently swirling the centrifuge tube. Non-supplemented KHB medium was added to obtain the appropriate target cell density.
For incubations, aliquots of hepatocyte suspension (250 mL at a concentration of 2×10^6 cells/mL) were added to 250 mL of 2 mM of each tested compound in KHB, in duplicate wells in a 24-well plate. Final concentration in the incubations were 1×10^6 cells/mL and 1 mM of each tested compound. […] A cell-free control was also tested in parallel with the incubations. The incubations were carried out with gentle shaking in a 37° C. incubator under a humid atmosphere of 95% air/5% CO2 (v/v). Aliquots (100 mL) were removed after 0, 1, 3, and 6 hours and added to 200 mL IS/Q. The samples were then placed on a shaker for 10 min followed by centrifugation at 3000×g for 20 min. The supernatant was transferred to a new plate and diluted with 100 μL of water to reduce the organic solvent content and then placed on a shaker for 10 mins. Samples were injected and analyzed using LC-MS/MS.

[3] = Kinetic solubility at pH 7.4; conditions: 1×PBS buffer (pH 7.4), 22.8 °C, pH 7.4, aqueous buffer, kinetic from dmso stock
Method: Kinetic Solubility at pH 7.4
The final DMSO Concentration was 1.0% and maximum theoretical compound concentration is 100 μM. The filter plate was sealed. […] The collection plate was sealed for analysis.
Filtrates were injected into the nitrogen detector for quantification on Analiza's Automated Discovery Workstation. The results are reported in μg/ml.
The filtrates were quantified with respect to this calibration curve. The calculated solubility values were corrected for background nitrogen present in the DMSO, and the media used to prepare the samples.
The 1×PBS buffer (pH 7.4) was prepared by adding 50 mL of phosphate buffered saline solution 10×, PBS (Fisher Bioreagent part number BP399-500) to approximately 450 mL HPLC grade H2O. The volume of the solution was then adjusted to 500 mL for a total dilution factor of 1:10 and a final PBS concentration of 1×. The pH of the final solution was measured and found to be 7.4.
Each compound tested was analyzed as a trifluoroacetate salt.

TLR8 = TLR8 (Homo sapiens (Human), UniProt Q9NR97); experiment: TLR8 human peripheral blood mononuclear cell (PBMC) cell-based assay (Compound A as agonist; TNFα and IL12p40 readout); conditions: human PBMCs, TLR8 agonist Compound A at 800 nM, 6 hours, antagonist potency; read-out: TLR-8 EC50
Chain of TLR8 (Q9NR97 27-1041): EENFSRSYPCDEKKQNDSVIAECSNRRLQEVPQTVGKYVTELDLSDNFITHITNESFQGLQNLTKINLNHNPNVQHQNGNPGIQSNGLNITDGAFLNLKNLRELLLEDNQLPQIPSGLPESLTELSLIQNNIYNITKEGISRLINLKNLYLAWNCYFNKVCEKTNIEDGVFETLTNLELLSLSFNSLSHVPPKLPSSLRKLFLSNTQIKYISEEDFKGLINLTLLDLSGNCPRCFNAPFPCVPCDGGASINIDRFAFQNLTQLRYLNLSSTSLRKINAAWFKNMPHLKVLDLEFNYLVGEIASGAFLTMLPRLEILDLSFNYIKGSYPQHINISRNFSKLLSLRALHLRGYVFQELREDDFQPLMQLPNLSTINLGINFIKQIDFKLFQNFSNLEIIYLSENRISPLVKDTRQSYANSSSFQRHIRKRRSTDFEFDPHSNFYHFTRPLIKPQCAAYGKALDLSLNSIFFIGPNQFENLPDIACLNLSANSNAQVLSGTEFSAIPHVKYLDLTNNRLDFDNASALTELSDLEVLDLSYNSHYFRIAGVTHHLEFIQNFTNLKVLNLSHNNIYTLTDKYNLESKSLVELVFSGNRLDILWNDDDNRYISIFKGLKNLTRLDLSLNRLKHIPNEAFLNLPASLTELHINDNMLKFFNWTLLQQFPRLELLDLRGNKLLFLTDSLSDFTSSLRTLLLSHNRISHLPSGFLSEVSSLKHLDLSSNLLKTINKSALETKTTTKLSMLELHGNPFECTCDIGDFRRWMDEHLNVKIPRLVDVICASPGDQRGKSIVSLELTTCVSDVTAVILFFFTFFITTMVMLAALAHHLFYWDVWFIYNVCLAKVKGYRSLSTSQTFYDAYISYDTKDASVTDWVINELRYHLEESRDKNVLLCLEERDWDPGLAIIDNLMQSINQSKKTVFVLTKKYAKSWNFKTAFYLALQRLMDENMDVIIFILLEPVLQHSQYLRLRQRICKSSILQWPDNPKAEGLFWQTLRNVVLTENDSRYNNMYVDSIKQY

[4] = transfected MDCK-II cells, 10 μM 14C-metformin probe substrate, read-out: MATE2-K IC50

| SMILES | EC50 (TLR7) | Predicted Clearance [2] | solubility kinetic at 24 h [3] | EC50 (TLR8) | IC50 [1] | IC50 [1, 4] |
| --- | --- | --- | --- | --- | --- | --- |
| Cc1c(-c2[nH]c3sc(C4CCN(CC(N)=O)CC4)c(C)c3c2C(C)C)cn2ncnc2c1C [Example 67] | 0.35 nM | 0.14 L/h/kg | 16.8 µg/mL (≈ 36.2 µM) | 2.08 nM | 6.2 µM |  |
| Cc1c(-c2[nH]c3sc([C@@H]4C[C@@H]5C[C@H]4CN5CC(N)=O)cc3c2C(C)C)cn2ncnc2c1C [Example 97] | 0.31 nM | 0.81 L/h/kg | 22.8 µg/mL (≈ 49.3 µM) | 1.09 nM |  |  |
| Cc1c(-c2[nH]c3sc(C4CCN(C(=O)[C@H]5COCCN5)CC4)c(C)c3c2C(C)C)cn2ncnc2c1C [Example 56] | 0.24 nM | 0.25 L/h/kg | 26.5 µg/mL (≈ 50.9 µM) | 2.46 nM |  | 7.7 µM |
| Cc1c(-c2[nH]c3ccc(C4CCN(CC(N)=O)CC4)cc3c2C(C)C)cn2ncnc2c1C [Example A-1, reference compound] |  | 0.27 L/h/kg | < 1 µg/mL |  |  | 0.3 µM |
| Cc1c(-c2[nH]c3sc(C4CCN(CC(N)=O)CC4)cc3c2C(C)C)cn2ncnc2c1C [Example 221] | 0.99 nM | 0.16 L/h/kg | 1 µg/mL (≈ 2.22 µM) | 3.2 nM |  |  |
| COc1cc(-c2[nH]c3cc(C4CCNCC4)sc3c2C(C)C)cn2ncnc12 [Example B-1, reference compound] | 0.3 nM | 0.26 L/h/kg | 22 µg/mL (≈ 55.6 µM) | 2.55 nM | 1.1 µM |  |
| CNC(=O)CN1C[C@@H]2C[C@H]1C[C@H]2c1sc2[nH]c(-c3cn4ncnc4c(C)c3C)c(C(C)C)c2c1C [Example 82] | 0.37 nM |  |  | 0.17 nM | > 14.5 µM |  |
| Cc1c(-c2[nH]c3sc([C@@H]4C[C@@H]5C[C@H]4CN5C(C)C(N)=O)c(C)c3c2C(C)C)cn2ncnc2c1C (single isomer, unassigned) [Example 100] | 0.32 nM |  | 23.5 µg/mL (≈ 47.9 µM) | 0.71 nM |  | 9.7 µM |
| Cc1cc(-c2[nH]c3sc([C@H]4C[C@@]5(CCCN(CC(N)=O)C5)C4)c(C)c3c2C(C)C)cn2ncnc12 [Example 141] | 0.42 nM |  |  | 10.6 nM |  |  |
| Cc1c(-c2[nH]c3sc([C@@H]4C[C@@H]5C[C@H]4CN5C4(CC#N)CN(S(C)(=O)=O)C4)c(C)c3c2C(C)C)cn2ncnc2c1C [Example 153] | 0.77 nM |  |  | 23.2 nM |  |  |
| Cc1c(-c2[nH]c3sc([C@@H]4C[C@@H]5C[C@H]4CN5Cc4cccn(C(F)F)c4=O)c(C)c3c2C(C)C)cn2ncnc2c1C [Example 172] | 3.03 nM |  |  | 0.82 nM |  |  |
| Cc1nnc(CN2C[C@@H]3C[C@H]2C[C@H]3c2sc3[nH]c(-c4cn5ncnc5c(C)c4C)c(C(C)C)c3c2C)o1 [Example 119] | 0.34 nM |  |  | 4.55 nM |  |  |
| Cc1c(-c2[nH]c3sc([C@@H]4C[C@@H]5CC[C@H]4CN5Cc4cn(C)nn4)c(C)c3c2C(C)C)cn2ncnc2c1C (single isomer, unassigned) [Example 216] | 2.74 nM |  |  | 5.26 nM |  |  |
| Cc1c(-c2[nH]c3sc(C4CC5(CCN(CC(N)=O)C5)C4)c(C)c3c2C(C)C)cn2ncnc2c1C (single isomer, unassigned) [Example 85, 2-(2-(5-(7,8-dimethyl-[1,2,4]triazolo[1,5-a]pyridin-6-yl)-4 isopropyl-3-methyl-6H-thieno[2,3-b]pyrrol-2-yl)-6-azaspiro[3.4]octan-6-yl)acetamide] | 0.35 nM |  |  | 0.39 nM |  |  |
| Cc1c(-c2[nH]c3sc(C4COC5(CCNCC5)C4)c(C)c3c2C(C)C)cn2ncnc2c1C (stereo not drawn) [Example 78, 3-(5-(7,8-dimethyl-[1,2,4]triazolo[1,5-a]pyridin-6-yl)-4-isopropyl-3-methyl-6H-thieno[2,3-b]pyrrol-2-yl)-1-oxa-8-azaspiro[4.5]decane] | 0.42 nM |  |  | 5.44 nM |  |  |
| Cc1c(-c2[nH]c3sc([C@@H]4C[C@@H]5C[C@H]4CN5CC(N)=O)c(C)c3c2C(C)C)cn2ncnc2c1C [Example 79, 2-((1S,4R,5R)-5-(5-(7,8-dimethyl-[1,2,4]triazolo[1,5-a]pyridin-6-yl)-4 isopropyl-3-methyl-6H-thieno[2,3-b]pyrrol-2-yl)-2-azabicyclo[2.2.1]heptan-2-yl)acetamide] | 0.12 nM | 0.26 L/h/kg | 21.5 µg/mL (≈ 45.1 µM) | 0.23 nM | 8.1 µM |  |
| Cc1c(C2CCN(C(=O)[C@H]3C[C@@H](F)CN3)CC2)sc2[nH]c(-c3cc(C)c4ncnn4c3)c(C(C)C)c12 [Example 42] | 0.78 nM |  |  | 25.7 nM |  |  |
| Cc1cc(-c2[nH]c3sc([C@H]4C[C@]5(CCCN(CC(N)=O)C5)C4)c(C)c3c2C(C)C)cn2ncnc12 [Example 142] | 2.31 nM |  |  | 7.47 nM |  |  |
| Cc1c(-c2[nH]c3sc([C@H]4C[C@@H](c5nnc([C@@H]6COCCN6)o5)C4)c(C)c3c2C(C)C)cn2ncnc2c1C (single isomer, unassigned) [Example 243] | 1.25 nM |  |  | 21.4 nM |  |  |
| Cc1c(C2CCN(C(=O)[C@H]3COCCN3C)CC2)sc2[nH]c(-c3cc(C)c4ncnn4c3)c(C(C)C)c12 [Example 48] | 0.29 nM |  |  | 19.7 nM |  |  |
| Cc1c(C2C3CCC2CN(CC(N)=O)C3)sc2[nH]c(-c3cc(C)c4ncnn4c3)c(C(C)C)c12 (stereo not drawn) [Example 63] | 0.26 nM |  |  | 27.3 nM |  |  |

Second part, led by results:

| EC50 (TLR7) | Predicted Clearance [2] | solubility kinetic at 24 h [3] | EC50 (TLR8) | SMILES | IC50 [1] | IC50 [1, 4] |
| --- | --- | --- | --- | --- | --- | --- |
| 0.06 nM | 0.22 L/h/kg | 27.7 µg/mL (≈ 59.7 µM) | 0.35 nM | Cc1c(-c2[nH]c3sc([C@@H]4C[C@@H]5C[C@H]4CN5CCO)c(C)c3c2C(C)C)cn2ncnc2c1C [Example 229] |  |  |
| 0.13 nM | 0.53 L/h/kg |  | 0.81 nM | Cc1c(-c2[nH]c3sc([C@H]4C[C@H]5C[C@@H]4CN5CC(N)=O)c(C)c3c2C(C)C)cn2ncnc2c1C [Example 84] |  |  |
| 0.05 nM | 0.11 L/h/kg | 24.9 µg/mL (≈ 49.3 µM) | 4.48 nM | Cc1c(-c2[nH]c3sc(C4CCN(C(=O)[C@H]5CCCN5)CC4)c(C)c3c2C(C)C)cn2ncnc2c1C [Example 98] |  |  |
| 0.07 nM | 0.64 L/h/kg |  | 2.82 nM | Cc1c(-c2[nH]c3sc([C@H]4C[C@@H]5C[C@H]4CN5CC(N)=O)c(C)c3c2C(C)C)cn2ncnc2c1C [Example 183] |  |  |
| < 0.05 nM | 0.26 L/h/kg | 21.1 µg/mL (≈ 41 µM) | < 0.05 nM | Cc1c(-c2[nH]c3sc([C@@H]4C[C@@H]5C[C@H]4CN5Cc4cn(C)nn4)c(C)c3c2C(C)C)cn2ncnc2c1C [Example 175] |  |  |
| 0.07 nM |  |  | 34.2 nM | Cc1c(C2CCNCC2)sc2[nH]c(-c3cc(C)c4nccn4c3)c(C(C)C)c12 [Example 252] |  |  |
| 0.23 nM |  |  | < 0.05 nM | Cc1c(-c2[nH]c3sc([C@@H]4C[C@@H]5C[C@H]4CN5CCCS(C)(=O)=O)c(C)c3c2C(C)C)cn2ncnc2c1C [Example 164] |  |  |
| < 0.05 nM |  |  | 0.17 nM | Cc1c(-c2[nH]c3sc([C@@H]4C[C@@H]5C[C@H]4CN5CCS(N)(=O)=O)c(C)c3c2C(C)C)cn2ncnc2c1C [Example 180] |  |  |
| 0.18 nM |  |  | 9.29 nM | Cc1c(C2CCN(C(=O)CN(C)C)CC2)sc2[nH]c(-c3cc(C)c4ncnn4c3)c(C(C)C)c12 [Example 10, 2-(dimethylamino)-1-(4-(4-isopropyl-3-methyl-5-(8-methyl-[1,2,4]triazolo[1,5-a]pyridin-6-yl)-6H-thieno[2,3-b]pyrrol-2-yl)piperidin-1-yl)ethan-1-one] |  |  |
| 0.05 nM |  |  | 8.32 nM | Cc1c(C2CCN(C(=O)N3CCNCC3)CC2)sc2[nH]c(-c3cc(C)c4ncnn4c3)c(C(C)C)c12 [Example 32] |  |  |
| < 0.05 nM |  |  | 0.51 nM | Cc1c(-c2[nH]c3sc([C@@H]4C[C@@H]5C[C@H]4CN5CC(=O)N=S(C)(C)=O)c(C)c3c2C(C)C)cn2ncnc2c1C [Example 155] |  |  |
| 0.05 nM |  |  | 0.94 nM | Cc1c(-c2[nH]c3sc([C@H]4C[C@H]5C[C@@H]4CN5)c(C)c3c2C(C)C)cn2ncnc2c1C [Example 74] |  |  |
| 0.07 nM |  |  | 0.5 nM | Cc1c(-c2[nH]c3sc(C4C[C@@H]5CN[C@H]4C5)c(C)c3c2C(C)C)cn2ncnc2c1C (stereo partly drawn) [Example 112] |  |  |
